In test [1] the test system is mouse spleen cells (T-lymphocyte response to Con-A). Put plainly: Concanavalin A assay (mouse spleen cell mitogen induced blastogenesis). To be noted: estimated IC50, Con-A 1.25 μg/ml, 3 days, MTT. It is filed as cell-based. From the text:
iii Concanavalin A assay (the mouse spleen cell mitogen induced blastogenesis).
The MLR assay measures the effects of a study compound on the activation and antigen presentation of T-lymphocytes, therefore determining immunomodulatory properties. The mouse spleen cell mitogen-induced blastogenesis and the BUD-8 human fibroblast proliferation assays measure the effects of the compounds of the present invention on cellular proliferation of cells involved in the pathogenesis of autoimmune diseases. These two assays are appropriate as screens to ascertain anti-inflammatory and/or autoimmune beneficial activity and are art accepted for such purposes.
It is known that the induction and maintenance of most inflammatory diseases are typically due to the unrestricted activity of T-lymphocytes. Therefore, it is advantageous to identify compounds which are modulators of T-lymphocyte activity for eventual use in the regulation of inflammatory diseases, including acquired immune deficiency syndrome, psoriasis, systemic lupus, erythromatosus, and rheumatoid arthritis.
A simple method is used to screen compounds for their ability to modulate T-lymphocyte activity which comprises assessing the capacity of the compounds to alter the activation of murine spleen cells in response to T-lymphocyte mitogen activators, such as Conconavalin-A (Con-A). The method used to measure the effects of the compounds of the present invention on the blastogenic response of spleen cells to the T-lymphocyte mitogen (Con-A) is as follows:
The response of a mouse spleen cells to the T cell mitogen Con-A is a classical assay. In this assay, mice were euthanized by cervical dislocation and their spleens removed surgically. A single cell suspension of the spleens was prepared in culture medium (RPMI-1640 with hepes, supplemented with 10% calf serum, 2 mM glutamine, 500 units penicillin/streptomycin, and 4×10^-5 M 2-mercaptoethanol) using a Teflon pestle. The cells were centrifuged at 1500 RPM and the pellets resuspended in ACT (0.15M Tris, 0.14M Ammonium chloride, pH 7.2) in orde to lyse the red blood cells. After a five minutes incubation in a 37° C. waterbath, the cells were washed and resuspended in culture medium. The splenic lymphocytes were counted using an electronic Coulter Counter and diluted to 5.0×10^6 cells/ml.
The test articles were diluted in culture medium to the appropriate concentrations. 100 μl aliquots were distributed to triplicate wells in a 96-well microtiter plate. 50 μl of lymphocytes (2.5×10^5 cells) were added to each well. Control wells with vehicle and wells with media were also run. Plates were incubated for one hour at 37° C. 50 μl of Con-A ([…]) were then added to the wells to result in a final concentration of 1.25 μg/ml. After incubation at 37° C. with 5% carbon dioxide for 3 days, proliferation was measured by adding 20 μl of MTT (10 mg/mlin PBS) [3-(4,5-dimethyl-thiazol-2-yl)-2,5-diphenyl tetrazolium bromide] to each well. Plates were incubated for 4 hours at 37° C., after which 180 μl of 10% SDS in PBS were added. After an overnight incubation, the optical density (OD) of each well was read using a Molecular Devices microplate reader at 570-650 nm.
Duplicate cultures without Con-A were also set up. After 3 days of incubation, supernatants were assayed for lactate dehydrogenase activity to determine the viability of the cells, which is an indication of the toxicity of the test article on the splenic lymphocytes. 0.1 ml of supernatant was mixed with 0.1 ml of the LDH substrate mixture which contains 5.4×10^-2 M L(+) lactate, 6.6×10^-4 M 2-p-iodophenyl-3-p-nitrophenyl tetrazolium chloride, 2.8×10^-4 M phenazine methosulfate, 1.3×10^-3 M NAD, and 0.2M Tris buffer, pH 8.2. Plates were read immediately for 5 minutes at 490 nm using a Molecular Devices microplate reader.
The mean for each test article treated group was determined and compared to the mean of the control group. […]

The test system of test [2] is various tumor cell lines (leukemia, melanoma, lung cancer, colon cancer, renal cancer, ovarian cancer, brain cancer). The test can be described thus: Tumor cell line growth inhibition (average over lines of seven cancer types). The class given is cell-based. The conditions noted are these: Log 10 values; average GI50 over tumor cell lines from seven cancer types; read-out: GI (μM) Log 10 values (Average GI50) (converted). The procedure: The compounds of the present invention were also tested against various tumor cell lines, derived from seven cancer types. These include leukemia, melanoma, lung cancer, colon cancer, renal cancer, ovarian cancer, and brain cancer. Most of the compounds have shown significant activity in various screens, particularly against colon cancer and melanoma.

The mark [3] stands for this setting: Mus musculus, T-lymphocyte, 72 h.

A value given as a limit tells only on which side of the number the result lay.

Turning to `CCCCCCCCCOCCCO[C@H]1O[C@H]([C@H](O)CN2CCCCCC2)[C@@H]2OC(C)(C)O[C@H]12` [Compound 6, n-Nonyloxypropyl 2,3-O-(1-methylethylidene)-6-deoxy-6-hexamethyleneimino-α-D-mannofuranoside], in test [1] (setting [3]), the IC50 is 3.2 µM.

In the case of `CCCCCCCCCOCCCO[C@H]1O[C@H]([C@H](C)N2CCCC2)[C@@H]2OC(C)(C)O[C@H]12` [Compound 15, n-Nonyloxypropyl 5,6-dideoxy-2,3-O-(1-methylethylidene)-5-pyrrolidinyl-β-L-gulofuranoside], the IC50 in test [1] (setting [3]) is 2.8 µM.

Take `CC1(C)O[C@@H]2[C@H](O1)[C@@H](OCCCc1ccccc1)O[C@@H]2[C@H](O)CN1CCCC1` [Compound 20, Phenylpropyl 6-deoxy 2,3-O-(1-methylethylidene)-6-pyrrolidinyl-α-D-mannofuranoside]: the GI50 in test [2] was 87.1 µM. The IC50 in test [1] (setting [3]) was 59 µM.

Regarding “n-Nonyloxypropyl 2,3-O-(1-methylethylidene)-6-deoxy-6-aminothylpyrrolidinyl-α-D-mannofuranoside [Compound 7]”, the IC50 in test [1] is 2.9 µM.

For `CC1(C)O[C@@H]2[C@H](O1)[C@@H](OCCCCN1CCCC1)O[C@@H]2[C@H](O)CO` [Compound 29, 4'-(1-Pyrrolidinyl)butyl 2,3-O-(1-methylethylidene)-α-D-mannofuranoside], in test [1] (setting [3]), the IC50 was 49 µM.

Regarding `CCCCCCCCCOCCCO[C@H]1O[C@H]([C@H](O)CNCCCCCCC)[C@@H]2OC(C)(C)O[C@H]12` [Compound 8, n-Nonyloxypropyl 2,3-(1-methylethylidene)-6-deoxy-6-aminoheptyl-α-D-mannofuranoside], the GI50 in test [2] is 2.29 µM. Also, the IC50 in test [1] (setting [3]) was 17 µM.

Consider `CCCCCCCCCOCCCO[C@H]1O[C@H]([C@H](O)CN2CCOCC2)[C@@H]2OC(C)(C)O[C@H]12` [Compound 5, n-Nonyloxypropyl 2,3-O-(1-methylethylidene)-6-deoxy-6-morpholinyl-α-D-mannofuranoside], for which, in test [1] (setting [3]), the IC50 is 17 µM.

On to `C[C@@H](OCCCN(C)C)[C@H]1O[C@H](OCCCc2ccccc2)[C@H]2OC(C)(C)O[C@H]21` [Compound 26, Phenylpropyl 6-deoxy 2,3-O-(1-methylethylidene)-5-O-3'-(N'N'-dimethylamino-n-propyl)-α-D-mannofuranoside], for which the GI50 in test [2] was 58.9 µM. In test [1] (setting [3]), the IC50 is 18 µM.

As to `C[C@@H](OCCN1CCCC1)[C@H]1O[C@H](OCCCc2ccccc2)[C@H]2OC(C)(C)O[C@H]21` [Compound 27, Phenylpropyl 6-deoxy 2,3-O-(1-methylethylidene)-5-O-(N'-ethylpyrrolidinyl)-α-D-mannofuranoside], the IC50 in test [1] (setting [3]) was < 3 µM.

As for `CCCCCCCCCOCCCO[C@H]1O[C@H]([C@H](O)CN2CCCC2)[C@@H]2OC(C)(C)O[C@H]12` [Compound 3, n-Nonyloxypropyl 2,3-O-(1-methylethylidene)-6-deoxy-pyrrolidinyl-α-D-mannofuranoside], the GI50 in test [2] is 9.12 µM. The IC50 in test [1] (setting [3]) is 3.3 µM.

Regarding `CCCCCCCCCOCCCO[C@H]1O[C@H]([C@@H](C)OCCCN(C)C)[C@@H]2OC(C)(C)O[C@H]12` [Compound 10, n-Nonyloxypropyl 2,3-O-(1-methylethylidene)-6-deoxy-5-O-(N,N-dimethylaminopropyl)-α-D-mannofuranoside], in test [2], the GI50 is 11.5 µM. For the same molecule, the IC50 in test [1] (setting [3]) is 3 µM.

Regarding `CCCCCCCCCOCCCO[C@H]1O[C@H]([C@@H](C)OCCN2CCCC2)[C@@H]2OC(C)(C)O[C@H]12` [Compound 12, n-Nonyloxypropyl 2,3-O-(1-methylethylidene)-6-deoxy-5-O-(N'-ethylpyrrolidinyl)-α-D-mannofuranoside], in test [1] (setting [3]), the IC50 was 3.2 µM.

As for `C[C@@H]([C@H]1O[C@H](OCCCc2ccccc2)[C@H]2OC(C)(C)O[C@H]21)N1CCCC1` [Compound 24, Phenylpropyl 5,6-dideoxy 2,3-O-(1-methylethylidene)-5-pyrrolidinyl-β-L-gulofuranoside], the GI50 in test [2] was 95.5 µM. In test [1] (setting [3]), the IC50 is 28 µM.

As for `CCCCCCCNC[C@@H](O)[C@H]1O[C@H](OCCCc2ccccc2)[C@H]2OC(C)(C)O[C@H]21` [Compound 21, Phenylpropyl 6-deoxy 2,3-O-(1-methylethylidene)-6-heptylamino-α-D-mannofuranoside], in test [2], the GI50 was 7.41 µM. The IC50 in test [1] (setting [3]) is 7 µM.

As to `CCCCCCCCCOCCCO[C@H]1O[C@H]([C@H](O)CN2CCCCC2)[C@@H]2OC(C)(C)O[C@H]12` [Compound 4, n-Nonyloxypropyl 2,3-O-(1-methylethylidene)-6-deoxy-6-piperidinyl-α-D-mannofuranoside], the IC50 in test [1] (setting [3]) was 2.7 µM.

In the case of `CC1(C)O[C@@H]2[C@H](O1)[C@@H](OCCCc1ccccc1)O[C@@H]2[C@H](O)CNCCCN1CCCC1` [Compound 22, Phenylpropyl 6-deoxy 2,3-O-(1-methylethylidene)-6-aminopropylpyrrolidinyl-α-D-mannofuranoside], in test [1] (setting [3]), the IC50 was 2.5 µM.

In general, IC50 refers to the concentration that inhibits the measured activity by half. For orientation: GI50 means the concentration giving 50% growth inhibition.

The record behind these values is patent US5360794A, “Disubstituted and deoxy disubstituted derivatives of α-D-mannofuranosides and β-L-gulofuranosides having anti-inflammatory and anti-proliferative activity” (Medicarb Inc., priority 1992, dated 1994).
